From patent US20150374784A1, “COMPOSITIONS AND METHODS FOR REDUCING GERM CELL DEATH” (Los Angeles Biomedical Research Institute at Harbor-UCLA …, priority 2014, published 2015)

Key:
[1] = test system: Ki-67 antigen; assay: Immunohistochemistry of lung metastases: Ki-67; assay type: in vivo, mouse; conditions: CP 200 mg/kg single IP, HNG 5 mg/kg daily IP 14 days
Protocol: Methods: Adult male mouse (n=5/group) were seeded with mouse B16 melanoma cells (100,000 cells/mouse) via tail vein on day 1. One week after melanoma cell inoculation, mice were treated either with a single intraperitoneal injection (IP) of CP (200 mg/kg), or daily IP injections of HNG (5 mg/kg), or both for 14 days. Mice were sacrificed at day 21 and lungs were fixed in formaldehyde. Immunohistochemistry was performed on lung metastases with antibodies against phosphorylated-AMPK (p-AMPK), p-4E-BP1 (downstream effector of mTOR) and Ki-67 antigen (a marker of cell proliferation).

[2] = test system: HEK293 (normal embryonic kidney cells); assay: Autophagy induction (LC3-II, mRFP-GFP-LC3) in HEK293; assay type: cell-based
Source text: The increased level of LC3-II, a marker of autophagosome was examined by Western blot and immunocytochemistry. The increase of autophagosomes and autolysosomes in HEK293 cells stably expressing mRFP-GFP-LC3, a dual-tag reporter of autophagy, was examined following humanin treatment. In addition, the signaling pathways activated by humanin using a phospho-antibody array in SH-SY5Y cells was investigated. […] Both activation and suppression of autophagy are involved in cancer pathogenesis and treatment, depending on the context.

Row | Molecule | mean Ki-67 index [1] | autophagy [2]
1 | O=P1(N(CCCl)CCCl)NCCCO1 (centres unmarked) [CP, cyclophosphamide monohydrate] | 30.0±16.2 | –
2 | MAPRGFSCLLLLTSEIDLPVKRRA [HN, 24-amino acid mitochondrial derived peptide] | – | induces autophagy
